Measured values from ChEMBL document CHEMBL3507680, “University of Dundee, Gates Library screen for HepG2 cell viability”.

Test: Human HepG2 cell viability assay in 384 well format
Type: toxicity, cell-based
Set-up: dose 125 nL, time 70.5 hour; concentration not given beside the values
Conditions: HepG2 cells, read-out: Inhibition

| Structure (SMILES) | cytotoxicity at 70.5 h [%] |
| --- | --- |
| CCN(CC)S(=O)(=O)c1cc(Br)ccc1OC | -7.07 |
| COc1ccc(C(=O)N2CCOc3ccncc32)cc1 | -1.92 |
| CCc1cc2c(N3CCCC(c4ccn[nH]4)C3)ncnc2s1 (stereo unspecified) | 2.73 |
| CCc1nc(CS(=O)(=O)Cc2noc(C3CC3)n2)cs1 | -1.78 |
| C[S+]([O-])CCNC(=O)N1CCSC2(CCCCC2)C1 (stereo unspecified) | -3.78 |
| O=C(Cc1ccon1)N1CCc2cc(Br)sc2C1 | -3.84 |
| O=C(NCC(O)CO)Nc1cc(Br)ccc1F (stereo unspecified) | -1.48 |
| COc1ccc(C(C)NCc2ccsc2)cc1Cn1cccn1 (stereo unspecified) | -3.16 |
| CN1CCOC(CNCC(=O)NCCc2ccc3c(c2)OCCO3)C1 (stereo unspecified) | 4.64 |
| CC(C)c1nn(C)cc1CNCc1cccc(N(C)C)c1 | 6.7 |
| CCc1ccc(C(=O)NC[C@H]2CCCN2C(=O)c2ccc(CC)o2)o1 | 2.7 |
| CCN(Cc1ccc(N(C)C)cc1)S(=O)(=O)c1cc(Br)ccc1OC | -1.59 |
| CCOc1ccc(Br)cc1S(=O)(=O)N(CC)Cc1ccc(N(C)C)cc1 | -3.07 |
| Cc1cc(NC(=O)C2CCN(c3nnc(C)c(C)c3C#N)CC2)no1 | 0.58 |
| COc1cc(CNC(=O)COC2CCCC2)ccc1O | -4.4 |
| Cc1cc(NC(=O)NCCC(=O)N2CCCc3ccccc32)no1 | -6.7 |
| CCN(CC)S(=O)(=O)NC1CCN(c2ccc(OC)cc2)CC1 | -3.82 |
| COc1ccc(N2CCC(NS(=O)(=O)N(C)C(C)C)CC2)cc1 | 7.03 |
| CCN(CCNC(=O)Nc1nnc(C)s1)C(=O)OC(C)(C)C | -5.88 |
| Cc1nc(CN2CCN(S(=O)(=O)N3CCCCC3)CC2)oc1C | -4.75 |
| COCCN(C)C(=O)NCCc1coc(-c2ccc(C)cc2)n1 | 7.28 |
| Cc1ccc(N2CCCN(C(=O)CCc3ccsc3)CC2)nn1 | -6.07 |
| CN1CCCC(CNC(=O)CN(C)S(=O)(=O)c2cccnc2)C1 (stereo unspecified) | 6.09 |
| Cc1noc(C)c1CNC(=O)NCCC(=O)N1CCCc2ccccc21 | 3.77 |
| CC(C)N(C(=O)Cn1cc(Cl)cn1)c1ccccc1 | -4.68 |

| Structure (SMILES) | cytotoxicity at 70.5 h [%] |
| --- | --- |
| CN1CCN(CCOc2ccc(NC(=O)c3cnc[nH]3)cc2)CC1 | 6.08 |
| CN1CCN(CCOc2ccc(NC(=O)c3ccoc3)cc2)CC1 | -4.12 |
| Cc1cc(CNC(=O)NCCC(=O)N2CCCc3ccccc32)no1 | 7.7 |
| CCC(C(=O)NCCc1coc(-c2ccc(C)cc2)n1)N(C)C (stereo unspecified) | 3.11 |
| Cc1nc(CN2CCN(S(=O)(=O)N3CCOCC3)CC2)oc1C | -3.19 |
| OCCN1CCC(CNCc2cn(-c3ccccc3)nn2)CC1 | -12.5 |
| COCCCn1ccc(NC2CCOCC2)n1 | -7.45 |
| CN(CC(=O)NCCC#N)C(c1ccccc1)c1ccccc1 | -14.5 |
| O=C(c1sccc1Br)N1CCOCC1 | -15.9 |
| CN(CC(N)=O)Cc1cc(Cl)cc2cccnc12 | -8.6 |
| CN(Cc1nc2ccccc2[nH]1)C(=O)C(C)(C)n1cc(Cl)cn1 | -12.7 |
| CC(O)CN1CCC(CNCc2cn(-c3ccccc3)nn2)CC1 (stereo unspecified) | -9.21 |
| CC(C)(C(=O)NCCCc1nc2ccccc2[nH]1)n1cc(Cl)cn1 | -5.61 |
| CS(=O)(=O)NCCNC(=O)c1ccc(OCc2ccccc2)nc1 | -9.1 |
| CCC(C)(C)NC(=O)c1ccc(NC(=O)NCc2cc(C)no2)cc1 | -0.597 |
| Cn1ncc2c(=O)[nH]c(N3CCCC3c3cccs3)nc21 (stereo unspecified) | 17.2 |
| c1ccc(-c2nc(SCc3nnc(C4CC4)o3)n[nH]2)nc1 | -4.88 |
| CCc1noc(CSc2n[nH]c(-c3ccccn3)n2)n1 | -3.21 |
| N#CC1COCCN1S(=O)(=O)c1ccc2c(c1)CCC2 (stereo unspecified) | -8.31 |
| CN(C)CCn1cc(NC(=O)NC(C)(C)c2nccs2)cn1 | -3.3 |
| CCc1nc(CC)n(CC(=O)N(C)CC(F)(F)F)n1 | -4.55 |
| CC(NC(=O)NCC(C)(C)O)c1ccc(-c2cncnc2)cc1 (stereo unspecified) | 19.1 |
| CC(NC(=O)NCC(C)(C)O)c1ccc(-c2ccncc2)cc1 (stereo unspecified) | -1.45 |
| CC(C)Sc1ccc(N2CCN(Cc3ccccn3)CC2)nn1 | -12.7 |
| COc1ncnc(N(C)C)c1NC(=O)c1cscc1C | -9.9 |

| Structure (SMILES) | cytotoxicity at 70.5 h [%] |
| --- | --- |
| CC(C)CCN(c1cn[nH]c1)S(=O)(=O)c1cccc(C#N)c1 | 18.2 |
| Cc1ccc(C(C)NCCc2nccn2Cc2ccccc2)o1 (stereo unspecified) | -10.1 |
| Cc1nc(CN(C)C2CCN(CC(=O)N(C)CCC#N)C2)no1 (stereo unspecified) | 0.0577 |
| O=C1CCCN1CCN1CCCCC1Cn1cncn1 (stereo unspecified) | 17.7 |
| CCc1c(NCc2ccc(F)cc2)cnn1CC(C)C | -6.17 |
| COc1ccc(-c2nnc(C(C)N3CCOCC3)o2)cc1 (stereo unspecified) | -2.92 |
| N#Cc1ccnc(N2CCN(C3CCOC3=O)CC2)c1 (stereo unspecified) | 14.2 |
| CCOc1ccc(Cl)c(C(=O)NC(Cc2ccccc2)C(N)=O)n1 (stereo unspecified) | -1.23 |
| COc1ccc(-c2nnc(C(C)N3CCOC(C)(C)C3)o2)cc1 (stereo unspecified) | -5.79 |
| CCc1ccsc1C(=O)NC(Cc1ccccc1)C(N)=O (stereo unspecified) | -6.72 |
| Cc1cc(S(C)(=O)=O)c(C)c(S(=O)(=O)NCC2CCC2)c1 | -9.88 |
| Cc1cc(NC(=O)N2CCN(C)CC2C)n(Cc2ccccc2)n1 (stereo unspecified) | -9.75 |
| COc1ccccc1NCC(=O)NCc1scnc1C | 13.6 |
| Cc1cc(NC(=O)N(C)CCN2CCN(c3ccccc3)CC2)on1 | -2.89 |
| Cc1cc(NC(=O)NC(C)CN2CCN(c3ccccc3)CC2)on1 (stereo unspecified) | -5.02 |
| COCC1CN(c2ccc(Cl)cc2C#N)CCO1 (stereo unspecified) | -7.05 |
| NC(=O)c1ccc(N2CCN(Cc3ccc(F)cc3Cl)CC2)nn1 | -9.22 |
| COC(=O)c1cccc(CNC(=O)CCC(F)(F)F)c1 | -3.83 |
| COc1cc(CNCCC(N)=O)c2c(c1)CC(C)O2 (stereo unspecified) | -0.966 |
| N#Cc1cccn(CCOc2ccc(Cl)cc2)c1=O | -1.43 |
| COCC1CN(c2ccc(C#N)c(Cl)c2)CCO1 (stereo unspecified) | 21.2 |
| COc1cc(CNCCn2cc(C)cn2)c2c(c1)CC(C)O2 (stereo unspecified) | -8.44 |
| COc1cc(CNCCn2cccn2)c2c(c1)CC(C)O2 (stereo unspecified) | 7.89 |
| CC(C)c1csc(C(=O)N(C)c2ccc(Br)cn2)n1 | -3.47 |
| CC1COC2(CCN(C(=O)c3ncoc3C(C)C)CC2)O1 (stereo unspecified) | 11.1 |

| Structure (SMILES) | cytotoxicity at 70.5 h [%] |
| --- | --- |
| Cc1nn(C)c(N2CCOCC2)c1CNCC1CCS(=O)(=O)C1 (stereo unspecified) | -10.2 |
| O=C(NCCNc1ncccn1)NCc1cccc(OC(F)F)c1 | 18.9 |
| CN(C)c1ncccc1CNC(=O)NCc1ccco1 | 0.432 |
| CNC(=O)Cc1ccccc1NC(=O)NCc1ccc(SC)cc1 | 19.8 |
| CC(C)Cc1cc(NC(=O)c2ccc3[nH]nnc3c2)n(C)n1 | 14.7 |
| Cc1cc(N(C)C)nc(N2CC(n3cccn3)C2)n1 | 5.13 |
| O=C(NCC(O)COc1ccc(F)cc1)C1(c2ccc(F)cc2)CC1 (stereo unspecified) | -8.65 |
| Cn1nc(CC(C)(C)C)cc1NC(=O)c1ccc(CNC(N)=O)cc1 | -7.81 |
| CC(=O)Nc1cc(C(=O)Nc2cc(CC(C)(C)C)nn2C)ccc1F | 14.4 |
| COc1cc2nc(NCc3ccc(C)nc3)nc(N)c2cc1OC | -5.25 |
| CCCOc1cccc(NC(=O)NC2CCc3nc(C)nn3C2)c1 (stereo unspecified) | -5.39 |
| CCc1cccc(NC(=O)NC2CCc3nc(C)nn3C2)c1 (stereo unspecified) | 13.8 |
| O=C(NCC(F)(F)F)C1CCCN(Cc2ccno2)C1 (stereo unspecified) | -3.85 |
| OCCOc1ccc(NCc2cccc3cccnc23)cn1 | 17.1 |
| Cc1ncccc1CNc1ccc(OCCO)nc1 | -6.19 |
| CC(C)NC(=O)NCc1ccnc(N(C)C)n1 | -6.75 |
| CN(C)c1nccc(CNC(=O)NC(C)(C)C)n1 | -0.141 |
| CN(C)c1nccc(CNC(=O)NCc2ccco2)n1 | -8.38 |
| CCc1cnc(CN(C)C(=O)NC2CCN(c3ccccc3)C2)s1 (stereo unspecified) | -0.551 |
| CCc1cnc(CN(C)C(=O)NC2CCN(CC3CC3)C2)s1 (stereo unspecified) | 25.5 |
| c1cc(-c2noc(C3CCC3)n2)cc(N2CCCCC2)n1 | 16.5 |
| COC(=O)C1CN(Cc2ccccc2C(C)(C)C#N)CCO1 (stereo unspecified) | -5.04 |
| OCCOc1ccc(NCc2cccc3cn[nH]c23)cn1 | 0.12 |
| Cc1cnc(CN2CCN(C(C)c3nc(C4CC4)no3)CC2)cn1 (stereo unspecified) | -6.13 |
| CC1CCCCN1C(=O)c1ccc2c(c1)OCCCO2 (stereo unspecified) | 10.5 |

| Structure (SMILES) | cytotoxicity at 70.5 h [%] |
| --- | --- |
| O=C(NCc1ccccc1CN1CCCC1=O)Nc1nncs1 | -7.24 |
| O=S(=O)(CCCc1ccccc1)Cc1nnnn1C1CC1 | -8.42 |
| O=C(NCc1ccccc1CN1CCCC1=O)Nc1nccs1 | -9.69 |
| CC1CCCCN1Cc1nc(Cc2ccccc2)no1 (stereo unspecified) | -10.4 |
| CC(C)(C(=O)NCc1ccc(C#N)cc1)n1cc(Br)cn1 | -2.27 |
| O=C(Cn1ccc(=O)c2ccccc21)Nc1cnccc1O | 8.04 |
| CN(C1CCN(c2ccccn2)CC1)S(=O)(=O)c1ccc(F)cc1 | -6.89 |
| O=C(c1ccc2c(c1)CCC2)N1CCCCC1C1OCCO1 (stereo unspecified) | -7.93 |
| N#Cc1ccc(SCCOCCO)c(F)c1 | -8.55 |
| CN(C)c1ncccc1C(=O)N1CCN(C2=NCC(C)(C)S2)CC1 | 6.73 |
| O=C(CC1OCCc2ccsc21)NCC1CC1 (stereo unspecified) | -1.8 |
| NC(=O)CCNC(=O)Cc1cccc(I)c1 | 16.7 |
| COCCn1ccc(NCc2scnc2C)n1 | -8.55 |
| N#Cc1ccc(SCCOCCO)c(Cl)c1 | -5.04 |
| c1ccc(Cc2noc(CN3CCCC3C3CCCCC3)n2)cc1 (stereo unspecified) | 16.5 |
| CN(C)C(C(=O)NCC1(O)CCCCC1)c1c(F)cccc1F (stereo unspecified) | -13 |
| CCOc1ccnc(N2CCN(CCOC)CC2)n1 | -5.63 |
| Cc1cnc(CN2CCN(C(C)c3nc(C)no3)CC2)cn1 (stereo unspecified) | 17.2 |
| CC(C)N(Cc1ccccc1)Cc1nnsc1Cl | -8.66 |
| Cc1n[nH]cc1CNCc1cccc(OCC(F)(F)F)c1 | -0.995 |
| Cc1n[nH]cc1CNCc1ccnc(OCC(F)(F)F)c1 | -7.14 |
